{
  "source": "patent US9663495B2",
  "about": "(YUHAN CORPORATION, priority 2013, dated 2017)",
  "key": {"GPR119 [1]": {"target": "T1, GPR119 (Homo sapiens, UniProt Q8TDV5)", "T1 construct": "host or cells: CHO-K1 (GPR119 CRE-bla, doxycycline-induced)", "T1 sequence (Q8TDV5 1-335)": "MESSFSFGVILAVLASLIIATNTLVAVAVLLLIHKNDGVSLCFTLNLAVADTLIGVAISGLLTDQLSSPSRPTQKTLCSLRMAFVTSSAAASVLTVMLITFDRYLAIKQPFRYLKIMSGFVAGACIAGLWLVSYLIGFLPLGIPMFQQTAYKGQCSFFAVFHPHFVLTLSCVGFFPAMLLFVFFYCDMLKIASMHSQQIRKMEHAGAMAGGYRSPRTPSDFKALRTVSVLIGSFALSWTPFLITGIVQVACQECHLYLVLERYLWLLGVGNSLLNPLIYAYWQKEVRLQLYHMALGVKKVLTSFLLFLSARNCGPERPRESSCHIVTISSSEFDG", "test": "cAMP Accumulation Assay (GPR119 CRE-bla CHO-K1 cells, LiveBLAzer-FRET B/G)", "format": "cell-based", "conditions": "for EC50: 5 hours incubation; for Emax (Fold): maximum activity, response ratio versus non-treated control group"}, "male C57BL/6 mice": {"system": "male C57BL/6 mice", "test": "Oral Glucose Tolerance Test (OGTT)", "format": "in vivo", "design": "concentration or dose not given beside the values", "conditions": "fasted male C57BL/6 mice, oral administration 30 minutes before oral glucose; AUCglucose 0-120 minutes versus negative control group", "experimental": "The oral glucose tolerance test of the compounds according to the present invention was carried out according to the procedures disclosed in Andrikopoulos S, Blair A R, Deluca N, Fam B C, Proietto J, Am J Physiol Endocrinol Metab. 2008, Vol 295, E1323-1332. Briefly, male C57BL/6 mice at 8 to 9 weeks of age having 20 g to 25 g of body weight (Orient Bio Inc. Korea) were allowed to acclimatize to the surroundings (temperature: 20±2° C., humidity: 40-60%, light/dark cycle: 12 hours) for 1 week. During the acclimatization, the mice were given ad libitum access to feed and water. The mice were fasted from 18 hours before the test, except for allowing free access to water. After measuring the mice′ body weights and blood sugar levels, they were divided into test groups so as to have similar blood sugar levels. The mice were orally administered with a mixture of test compound and the diluent (0.5% solution of MC1500 (Sigma)). At 30 minutes after the administration, the mice were also orally administered with 20% glucose solution in an amount of 0.1 ml per 10 g of body weight. The blood samples were taken from the tail vain at 0 (right before the administration of the glucose solution), 15, 30, 60, 90, and 120 minutes after the administration of the glucose solution; and the blood sugar levels thereof were measured with a blood glucose test meter (GlucoDr. AGM-3000, All Medicus Co. Ltd.). The graph for blood sugar level on time for each test compound was plotted from the respective blood sugar values; and then area under the curve (AUCglucose) was determined. The inhibition rate of blood sugar (%) was calculated from the following formula. Inhibition rate of blood sugar (%)=[(AUCglucose of the negative control group−AUCglucose of the test group)/AUCglucose of the negative control group]×100"}, "GPR119 [2]": {"target": "T1, GPR119", "test": "cAMP Accumulation Assay (GPR119 CRE-bla CHO-K1 cells, LiveBLAzer-FRET B/G)", "format": "cell-based", "conditions": "(Emax of the test compound/Emax of MBX-2982)x100, 5 hours incubation"}},
  "data": [
    {"smiles": "CCc1cnc(N2CCN(c3ncc(-c4ccc(-n5cnn(CC(=O)N6CCCC6)c5=O)c(F)c4)cc3C#N)CC2)nc1", "note": "[Example 37, 2-(4-(5-ethylpyrimidin-2-yl)piperazin-1-yl)-5-(3-fluoro-4-(5-oxo-1-(2-oxo-2-(pyrrolidin-1-yl)ethyl)-1H-1,2,4-triazol-4(5H)-yl)phenyl)nicotinonitrile]", "values": [
      {"measurement": "EC50", "setting": "GPR119 [1]", "value": 3.2, "unit": "nM"},
      {"measurement": "Emax (Fold)", "setting": "GPR119 [1]", "value": 3.1, "unit": "Fold"},
      {"measurement": "Inhibition rate of blood sugar (%)", "setting": "male C57BL/6 mice", "value": 16.5, "unit": "%"},
      {"measurement": "Emax (% RR)", "setting": "GPR119 [2]", "value": 110.0, "unit": "% RR"}
    ]},
    {"smiles": "CCc1cnc(N2CCN(c3ncc(-c4ccc(-n5cnn(CCN)c5=O)c(F)c4)cc3C#N)[C@@H](C)C2)nc1.Cl", "note": "[Example 17, (S)-5-(4-(1-(2-aminoethyl)-5-oxo-1H-1,2,4-triazol-4(5H)-yl)-3-fluorophenyl)-2-(4-(5-ethylpyrimidin-2-yl)-2-methylpiperazin-1-yl)nicotinonitrile hydrochloride]", "values": [
      {"measurement": "EC50", "setting": "GPR119 [1]", "value": 8.2, "unit": "nM"},
      {"measurement": "Emax (Fold)", "setting": "GPR119 [1]", "value": 3.2, "unit": "Fold"},
      {"measurement": "Inhibition rate of blood sugar (%)", "setting": "male C57BL/6 mice", "value": 18.2, "unit": "%"},
      {"measurement": "Emax (% RR)", "setting": "GPR119 [2]", "value": 115.1, "unit": "% RR"}
    ]},
    {"smiles": "CCc1cnc(N2CCN(c3ncc(-c4ccc(-n5cnn([C@@H]6CCNC6)c5=O)c(F)c4)cc3C#N)CC2)nc1", "note": "[Example 34, (R)-2-(4-(5-ethylpyrimidin-2-yl)piperazin-1-yl)-5-(3-fluoro-4-(5-oxo-1-(pyrrolidin-3-yl)-1H-1,2,4-triazol-4(5H)-yl)phenyl)nicotinonitrile]", "values": [
      {"measurement": "EC50", "setting": "GPR119 [1]", "value": 8.4, "unit": "nM"},
      {"measurement": "Emax (Fold)", "setting": "GPR119 [1]", "value": 3.2, "unit": "Fold"},
      {"measurement": "Inhibition rate of blood sugar (%)", "setting": "male C57BL/6 mice", "value": 25.1, "unit": "%"},
      {"measurement": "Emax (% RR)", "setting": "GPR119 [2]", "value": 113.8, "unit": "% RR"}
    ]},
    {"smiles": "CCc1cnc(N2CCN(c3ncc(-c4ccc(-n5cnn(CCN(CC)CC)c5=O)c(F)c4)cc3C#N)[C@@H](C)C2)nc1", "note": "[Example 10, (S)-5-(4-(1-(2-(diethylamino)ethyl)-5-oxo-1H-1,2,4-triazol-4(5H)-yl)-3-fluorophenyl)-2-(4-(5-ethylpyrimidin-2-yl)-2-methylpiperazin-1-yl)nicotinonitrile]", "values": [
      {"measurement": "EC50", "setting": "GPR119 [1]", "value": 8, "unit": "nM"},
      {"measurement": "Emax (Fold)", "setting": "GPR119 [1]", "value": 2.6, "unit": "Fold"},
      {"measurement": "Inhibition rate of blood sugar (%)", "setting": "male C57BL/6 mice", "value": 23.8, "unit": "%"},
      {"measurement": "Emax (% RR)", "setting": "GPR119 [2]", "value": 104.5, "unit": "% RR"}
    ]},
    {"smiles": "CCCn1ncn(-c2ccc(-c3cnc(N4CCN(C(=O)OC(C)(C)C)C[C@@H]4C)c(C#N)c3)cc2F)c1=O", "note": "[Example 5, (S)-tert-butyl 4-(3-cyano-5-(3-fluoro-4-(5-oxo-1-propyl-1H-1,2,4-triazol-4(5H)-yl)phenyl)pyridin-2-yl)-3-methylpiperazin-1-carboxylate]", "values": [
      {"measurement": "EC50", "setting": "GPR119 [1]", "value": 4, "unit": "nM"},
      {"measurement": "Emax (Fold)", "setting": "GPR119 [1]", "value": 2.7, "unit": "Fold"},
      {"measurement": "Inhibition rate of blood sugar (%)", "setting": "male C57BL/6 mice", "value": 21.9, "unit": "%"},
      {"measurement": "Emax (% RR)", "setting": "GPR119 [2]", "value": 109.1, "unit": "% RR"}
    ]},
    {"smiles": "CC(C)c1nc(C2CCN(c3ncc(-c4ccc(-n5cnn([C@H]6CCOC6)c5=O)cc4)cc3C#N)CC2)no1", "note": "[Example 71, (S)-2-(4-(5-isopropyl-1,2,4-oxadiazol-3-yl)piperidin-1-yl)-5-(4-(5-oxo-1-(tetrahydrofuran-3-yl)-1H-1,2,4-triazol-4(5H)-yl)phenyl)nicotinonitrile]", "values": [
      {"measurement": "EC50", "setting": "GPR119 [1]", "value": 9.8, "unit": "nM"},
      {"measurement": "Emax (Fold)", "setting": "GPR119 [1]", "value": 3.8, "unit": "Fold"},
      {"measurement": "Inhibition rate of blood sugar (%)", "setting": "male C57BL/6 mice", "value": 20.4, "unit": "%"},
      {"measurement": "Emax (% RR)", "setting": "GPR119 [2]", "value": 127.3, "unit": "% RR"}
    ]},
    {"smiles": "CCc1cnc(N2CCN(c3ncc(-c4ccc(-n5cnn([C@@H]6CCOC6)c5=O)c(F)c4)cc3C#N)CC2)nc1", "note": "[Example 33, (R)-2-(4-(5-ethylpyrimidin-2-yl)piperazin-1-yl)-5-(3-fluoro-4-(5-oxo-1-(tetrahydrofuran-3-yl)-1H-1,2,4-triazol-4(5H)-yl)phenyl)nicotinonitrile]", "values": [
      {"measurement": "EC50", "setting": "GPR119 [1]", "value": 4.4, "unit": "nM"},
      {"measurement": "Emax (Fold)", "setting": "GPR119 [1]", "value": 4.0, "unit": "Fold"},
      {"measurement": "Inhibition rate of blood sugar (%)", "setting": "male C57BL/6 mice", "value": 20.9, "unit": "%"},
      {"measurement": "Emax (% RR)", "setting": "GPR119 [2]", "value": 125.7, "unit": "% RR"}
    ]}
  ]
}
